Test results reported in ChEMBL document CHEMBL3870364, “Discovery of Spirocyclic Aldosterone Synthase Inhibitors as Potential Treatments for Resistant Hypertension” (ACS Med Chem Lett, 2017).
≈ marks a conversion by molar mass, not a printed value.

Experiments:
[1] = Solubility of the compound in PBS buffer at pH 2; format: physicochemical
[2] = Intrinsic clearance in Sprague-Dawley rat liver microsomes at 0.3 mM preincubated for 10 mins followed by NADPH addition measured up to 45 mins by LC/MS analysis; format: ADME; settings: read-out: CLH
[3] = Solubility of the compound in PBS buffer at pH 7; format: physicochemical
CYP11B1 / CYP11B2 = assay: Selectivity ratio of IC50 for human CYP11B1-8C7 expressed in chinese hamster V79 cells to IC50 for human CYP11B2-CLE9 expressed in chinese hamster V79 cells; format: ADME, cell-based; settings: read-out: Ratio IC50
[4] = Lipophilicity, logD of compound by HPLC analysis; format: physicochemical
[5] = biological target: T1, Cytochrome P450 11B2, mitochondrial (Homo sapiens, UniProt P19099); assay: Inhibition of human CYP11B2-CLE9 expressed in chinese hamster V79 cells using 11-deoxycorticosterone as substrate preincubated for 1 hr followed by substrate addition measured for 3 hrs by HTRF assay; format: cell-based
T1 sequence (P19099 whole entry): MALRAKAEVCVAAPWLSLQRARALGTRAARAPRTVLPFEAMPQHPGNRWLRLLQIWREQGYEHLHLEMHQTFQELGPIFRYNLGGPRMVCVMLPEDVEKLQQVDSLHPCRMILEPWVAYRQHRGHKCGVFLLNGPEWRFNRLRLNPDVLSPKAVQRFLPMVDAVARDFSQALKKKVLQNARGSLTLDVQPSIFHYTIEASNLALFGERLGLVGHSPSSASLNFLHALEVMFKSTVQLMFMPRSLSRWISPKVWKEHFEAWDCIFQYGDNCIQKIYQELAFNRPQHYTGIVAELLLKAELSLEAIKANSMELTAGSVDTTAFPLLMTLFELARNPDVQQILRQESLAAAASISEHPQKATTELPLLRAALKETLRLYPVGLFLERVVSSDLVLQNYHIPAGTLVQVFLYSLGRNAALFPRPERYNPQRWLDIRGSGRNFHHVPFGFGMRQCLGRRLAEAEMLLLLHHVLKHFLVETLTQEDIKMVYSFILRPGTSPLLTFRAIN

[6] = biological target: T2, Cytochrome P450 11B1, mitochondrial (Homo sapiens, UniProt P15538); assay: Inhibition of human CYP11B1-8C7 expressed in chinese hamster V79 cells using 11-deoxycortisol as substrate preincubated for 1 hr followed by substrate addition measured for 3 hrs by HTRF assay; format: ADME, cell-based
T2 sequence (P15538 whole entry): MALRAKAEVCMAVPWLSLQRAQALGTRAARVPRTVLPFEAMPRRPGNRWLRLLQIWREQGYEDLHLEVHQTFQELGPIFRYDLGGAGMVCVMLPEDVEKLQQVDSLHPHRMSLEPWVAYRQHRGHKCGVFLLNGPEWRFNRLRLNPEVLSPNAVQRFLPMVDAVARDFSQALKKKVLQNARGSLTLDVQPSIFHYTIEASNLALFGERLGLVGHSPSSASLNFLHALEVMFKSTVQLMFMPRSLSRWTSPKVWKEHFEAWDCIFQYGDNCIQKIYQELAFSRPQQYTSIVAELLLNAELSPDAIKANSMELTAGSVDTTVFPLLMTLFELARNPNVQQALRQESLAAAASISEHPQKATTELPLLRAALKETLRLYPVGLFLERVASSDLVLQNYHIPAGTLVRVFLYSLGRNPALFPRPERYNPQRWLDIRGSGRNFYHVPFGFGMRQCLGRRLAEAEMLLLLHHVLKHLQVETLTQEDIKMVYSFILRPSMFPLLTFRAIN

[7] = Ratio of IC50 for CYP21 (unknown origin) to IC50 for human CYP11B2-CLE9 expressed in chinese hamster V79 cells
[8] = Dose normalized AUC in Sprague-Dawley rat at 2 mg/kg administered via oral gavage by LC-MS/MS analysis; format: ADME, organism-based; settings: in vivo
[9] = Ratio of IC50 for CYP19A1 (unknown origin) to IC50 for human CYP11B2-CLE9 expressed in chinese hamster V79 cells
[10] = Half life in Sprague-Dawley rat plasma at 1 mg/kg, iv or 2 mg/kg administered via oral gavage by LC-MS/MS analysis; format: ADME, organism-based
[11] = Oral bioavailability in Sprague-Dawley rat at 2 mg/kg administered via gavage by LC-MS/MS analysis; format: ADME, organism-based; settings: in vivo
[12] = Ratio of IC50 for human CYP17 expressed in African green monkey COS7 cells to IC50 for human CYP11B2-CLE9 expressed in chinese hamster V79 cells; parameters: species or system COS-7
[13] = Clearance in Sprague-Dawley rat plasma at 1 mg/kg, iv or 2 mg/kg administered via oral gavage by LC-MS/MS analysis; format: ADME, organism-based
[14] = Oral bioavailability in Sprague-Dawley rat at 1 mg/kg administered via gavage by LC-MS/MS analysis; format: ADME, organism-based; settings: in vivo
[15] = Half life in Sprague-Dawley rat plasma at 0.5 mg/kg, iv or 1 mg/kg administered via oral gavage by LC-MS/MS analysis; format: ADME, organism-based
[16] = Clearance in Sprague-Dawley rat plasma at 0.5 mg/kg, iv or 1 mg/kg administered via oral gavage by LC-MS/MS analysis; format: ADME, organism-based
[17] = Dose normalized AUC in Sprague-Dawley rat at 1 mg/kg administered via oral gavage by LC-MS/MS analysis; format: ADME, organism-based; settings: in vivo

What does the source list for `c1ccc2c(N3CCC4(CCOC4)CC3)cncc2c1`?
solubility [1]: 196 µM (≈ 52.6 µg/mL); CLint scaled at 300 µM [2]: < 20 mL/min/kg; solubility [3]: 165 µM (≈ 44.3 µg/mL); selectivity ratio (CYP11B1 / CYP11B2): 24; logD [4]: 2.6; IC50 [5]: 13 nM; IC50 [6]: 387 nM

What does the source list for `CC1(C)CN(c2cncc(N3CCC4(CCC(=O)N4)CC3)n2)C1`?
selectivity ratio (CYP11B1 / CYP11B2): 30; IC50 [5]: 73 nM; IC50 [6]: 2190 nM

Which selectivity ratio (CYP11B1 / CYP11B2) does the source give for `c1ccc2c(N3CCC4(CC3)COC4)cncc2c1` here?
The selectivity ratio was 37.

What about the IC50 [5] of the same molecule?
Its IC50 is 42 nM.

What about the IC50 [6] of the same molecule?
The IC50 was 1590 nM.

Which results are given for `c1ccc2c(N3CCC4(CCNC4)CC3)cncc2c1`?
selectivity ratio (CYP11B1 / CYP11B2): < 1; IC50 [5]: > 10000 nM; IC50 [6]: 1310 nM

Which selectivity ratio (CYP11B1 / CYP11B2) does the source give for `CN1CC2(CCN(c3cncc([C@@](C)(O)C(F)(F)F)c3)CC2)CC1=O` here?
The selectivity ratio was over 22.

What about the IC50 [5] of the same molecule?
Its IC50 is 448 nM.

And the IC50 [6]?
The IC50 was 10000 nM.

For `c1ccc2c(N3CCC4(CCCC4)CC3)cncc2c1`, which solubility [1] is on record?
The solubility was 176 µM (≈ 46.9 µg/mL).

And the CLint scaled at 300 µM [2]?
The CLint scaled at 300 µM was 1290 mL/min/kg.

What about the solubility [3] of the same molecule?
Its solubility is 3 µM (≈ 0.799 µg/mL).

What about the selectivity ratio (CYP11B1 / CYP11B2) of the same molecule?
The selectivity ratio was 16.

And the logD [4]?
The logD was 5.6.

What about the IC50 [5] of the same molecule?
Its IC50 is 106 nM.

And the IC50 [6]?
The IC50 was 1670 nM.

Which results are given for `c1ccc2c(N3CCC4(CCCO4)CC3)cncc2c1`?
selectivity ratio (CYP11B1 / CYP11B2): 1; IC50 [5]: 704 nM; IC50 [6]: 787 nM

Which results are given for `CN1CC2(CCN(c3cncc4ccccc34)CC2)CC1=O`?
solubility [1]: 149 µM (≈ 44 µg/mL); CLint scaled at 300 µM [2]: 76 mL/min/kg; solubility [3]: 167 µM (≈ 49.3 µg/mL); selectivity ratio (CYP11B1 / CYP11B2): 9; logD [4]: 1.6; IC50 [5]: 228 nM; IC50 [6]: 2000 nM

Which selectivity ratio (CYP11B1 / CYP11B2) does the source give for `c1ccc2c(N3CCC4(CCCCC4)CC3)cncc2c1` here?
Its selectivity ratio is 3.

And the IC50 [5]?
Its IC50 is 554 nM.

What about the IC50 [6] of the same molecule?
Its IC50 is 1570 nM.

For `CC(C)(C)OC(=O)N1CCC2(CCN(c3cncc4ccccc34)CC2)C1`, which selectivity ratio (CYP11B1 / CYP11B2) is on record?
The selectivity ratio was over 7.

What about the IC50 [5] of the same molecule?
The IC50 was 1130 nM.

And the IC50 [6]?
The IC50 was over 8000 nM.

With `CC1(C)CN(c2cncc(N3CCC4(CC3)CNC(=O)C4)n2)C1` as the molecule, how does the selectivity ratio (CYP11B1 / CYP11B2) read?
The selectivity ratio was 51.

What about the IC50 [5] of the same molecule?
Its IC50 is 34 nM.

What about the IC50 [6] of the same molecule?
The IC50 was 1740 nM.

Which “Ratio IC50” value [7] does the source give for `CN1CC2(CCN(c3cncc([C@](C)(O)C(F)(F)F)c3)CC2)CC1=O` here?
Its value is over 200.

And the AUC/dose [8]?
Its AUC/dose is 2.15 µM·kg·h/mg.

What about the CLint scaled at 300 µM [2] of the same molecule?
The CLint scaled at 300 µM was under 20 mL/min/kg.

And the “Ratio IC50” value [9]?
Its value is over 200.

And the half-life [10]?
Its half-life is 72 min.

And the selectivity ratio (CYP11B1 / CYP11B2)?
The selectivity ratio was 49.

What about the bioavailability [11] of the same molecule?
Its bioavailability is 91%.

What about the “Ratio IC50” value [12] of the same molecule?
Its value is over 200.

And the IC50 [5]?
Its IC50 is 32 nM.

What about the clearance [13] of the same molecule?
Its clearance is 24 mL/min/kg.

What about the IC50 [6] of the same molecule?
The IC50 was 1540 nM.

With `CN1CCC2(CCN(c3cncc4ccccc34)CC2)C1=O` as the molecule, how does the IC50 [5] read?
Its IC50 is over 8000 nM.

What about the IC50 [6] of the same molecule?
Its IC50 is over 8000 nM.

With `C[C@](O)(c1cncc(N2CCC3(CCOC3)CC2)c1)C(F)(F)F` as the molecule, how does the bioavailability [14] read?
Its bioavailability is 100%.

What about the half-life [15] of the same molecule?
The half-life was 30 min.

What about the CLint scaled at 300 µM [2] of the same molecule?
Its CLint scaled at 300 µM is under 20 mL/min/kg.

And the selectivity ratio (CYP11B1 / CYP11B2)?
Its selectivity ratio is 28.

And the clearance [16]?
The clearance was 36 mL/min/kg.

What about the IC50 [5] of the same molecule?
Its IC50 is 13 nM.

What about the IC50 [6] of the same molecule?
Its IC50 is 355 nM.

And the AUC/dose [17]?
The AUC/dose was 0.85 µM·kg·h/mg.

For `CC(=O)N1CCC2(CCN(c3cncc4ccccc34)CC2)C1`, which selectivity ratio (CYP11B1 / CYP11B2) is on record?
Its selectivity ratio is 1.

What about the IC50 [5] of the same molecule?
Its IC50 is 1030 nM.

What about the IC50 [6] of the same molecule?
Its IC50 is 1000 nM.

Which results are given for `CN1CC2(CCN(c3cncc(N4CC(C)(C)C4)n3)CC2)CC1=O`?
selectivity ratio (CYP11B1 / CYP11B2): 47; IC50 [5]: 94 nM; IC50 [6]: 4460 nM
